{"source": "paper PMC11123956", "about": "“Nobiletin Stimulates Adrenal Hormones and Modulates the Circadian Clock in Mice” (Nutrients, 2024)", "key": {"serum adrenaline": {"tested_on": "serum adrenaline", "experiment": "Serum adrenaline ELISA after i.p. injection", "type": "in vivo, mice", "conditions": "intraperitoneal injection, 100 mg/kg", "protocol": "(§1) Male C57BL/6J mice (7 weeks old) were purchased from Charles River Japan (Kanagawa, Japan) and used for the serum hormone assay and RT-PCR. Male ICR mice were purchased from Tokyo Laboratory Animals Science Co., Ltd. (Tokyo, Japan), and female PERIOD2::LUCIFERASE (PER2::LUC) knock-in mice (ICR background) bred at Waseda University were used for blood glucose measurements and in vivo imaging assays, respectively. The mice were all housed under conditions of controlled temperature (23 °C ± 3 °C), humidity (50% ± 20%), and lighting (lights on from 07:00 to 19:00 at Taisho Pharmaceutical Co., Ltd. or from 08:00 to 20:00 at Waseda University). In the 24 h cycle, Zeitgeber time 0 (ZT0) was designated as the time when the lights were turned on, and ZT12 was designated as the time when the lights were turned off. […]\n(§2) Serum corticosterone, adrenaline, and adreno-corticotropic hormone (ACTH) levels, and corticotropin releasing factor (CRF) in the hypothalamus, were measured using enzyme-linked immunosorbent assay (ELISA). […] Blood glucose levels were measured using a Glucose PILOT kit (Aventir Biotech, LLC, Carlsbad, CA, USA). The range of blood glucose that could be precisely measured with the kit was 20–600 mg/dL. […]"}, "PDE2A": {"target": "T1, PDE2A (Homo sapiens, UniProt O00408)", "T1 construct": "purchased Eurofins Panlabs Discovery Services Taiwan, Ltd. (contract assay); host or cells: insect Sf9 cells", "T1 sequence (O00408 whole entry)": "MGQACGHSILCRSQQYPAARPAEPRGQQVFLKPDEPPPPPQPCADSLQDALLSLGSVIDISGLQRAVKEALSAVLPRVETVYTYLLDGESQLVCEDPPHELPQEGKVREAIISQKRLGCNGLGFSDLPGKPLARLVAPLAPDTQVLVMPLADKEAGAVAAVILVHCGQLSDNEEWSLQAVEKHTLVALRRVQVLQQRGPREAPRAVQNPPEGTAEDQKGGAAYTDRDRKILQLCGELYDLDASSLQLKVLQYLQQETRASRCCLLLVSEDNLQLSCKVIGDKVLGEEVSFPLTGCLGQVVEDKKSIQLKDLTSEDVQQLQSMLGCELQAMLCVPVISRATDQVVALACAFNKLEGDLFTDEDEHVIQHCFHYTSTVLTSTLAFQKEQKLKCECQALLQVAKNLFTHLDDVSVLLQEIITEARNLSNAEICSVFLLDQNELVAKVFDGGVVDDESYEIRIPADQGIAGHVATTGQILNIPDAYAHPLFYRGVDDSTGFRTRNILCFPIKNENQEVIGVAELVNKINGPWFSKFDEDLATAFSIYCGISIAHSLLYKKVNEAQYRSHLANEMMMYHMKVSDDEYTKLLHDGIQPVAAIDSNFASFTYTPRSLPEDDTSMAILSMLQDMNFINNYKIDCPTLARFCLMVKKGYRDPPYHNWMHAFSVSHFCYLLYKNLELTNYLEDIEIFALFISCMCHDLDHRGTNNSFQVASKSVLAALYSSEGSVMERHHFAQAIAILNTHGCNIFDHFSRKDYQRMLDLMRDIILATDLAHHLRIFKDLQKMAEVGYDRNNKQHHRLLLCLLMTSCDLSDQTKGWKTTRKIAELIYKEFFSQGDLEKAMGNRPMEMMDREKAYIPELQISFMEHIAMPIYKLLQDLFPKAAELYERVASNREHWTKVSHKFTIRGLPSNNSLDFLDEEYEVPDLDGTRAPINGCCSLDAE", "experiment": "PDE enzyme  assay, PDE2A", "type": "biochemical", "protocol": "(§3) Enzyme assays for various subtypes of PDE (Table 1 and Figure 4) were conducted by Eurofins Panlabs Discovery Services Taiwan, Ltd. (New Taipei City, Taiwan). In the assays, five or six concentrations of nobiletin over five or six orders of magnitude were examined in experiments conducted in duplicate to determine the IC50 (concentration of nobiletin exerting half-maximal inhibition of control-specific activity). IC50 values were determined by nonlinear least squares regression analysis using MathIQTM (ID Business Solutions Ltd., Woking, UK). FAM-cAMP, FAM-cGMP (0.1 μM), and 100 μM [^3H]cGMP + cGMP were used for the substrate in the human recombinant insect Sf9 cells or Bovine retinal rod outer segments depending on the PDE subtype. The spectrofluorometric quantitation of fluorescein-AMP-IMAP, fluorescein-GMP-IMAP, or [^3H] guanosine was used depending on the PDE subtype. A known […] of each PDE was used as the positive control."}, "[1]": {"experiment": "Blood glucose after i.p. injection", "type": "in vivo, mice", "conditions": "100 mg/kg, after 4 h fasting, 0-90 min", "protocol": "as §1, §2"}, "PDE11A4": {"target": "T2, PDE11A4 (Homo sapiens, UniProt Q9HCR9)", "T2 construct": "purchased Eurofins Panlabs Discovery Services Taiwan, Ltd. (contract assay); host or cells: insect Sf9 cells", "T2 sequence (Q9HCR9 whole entry)": "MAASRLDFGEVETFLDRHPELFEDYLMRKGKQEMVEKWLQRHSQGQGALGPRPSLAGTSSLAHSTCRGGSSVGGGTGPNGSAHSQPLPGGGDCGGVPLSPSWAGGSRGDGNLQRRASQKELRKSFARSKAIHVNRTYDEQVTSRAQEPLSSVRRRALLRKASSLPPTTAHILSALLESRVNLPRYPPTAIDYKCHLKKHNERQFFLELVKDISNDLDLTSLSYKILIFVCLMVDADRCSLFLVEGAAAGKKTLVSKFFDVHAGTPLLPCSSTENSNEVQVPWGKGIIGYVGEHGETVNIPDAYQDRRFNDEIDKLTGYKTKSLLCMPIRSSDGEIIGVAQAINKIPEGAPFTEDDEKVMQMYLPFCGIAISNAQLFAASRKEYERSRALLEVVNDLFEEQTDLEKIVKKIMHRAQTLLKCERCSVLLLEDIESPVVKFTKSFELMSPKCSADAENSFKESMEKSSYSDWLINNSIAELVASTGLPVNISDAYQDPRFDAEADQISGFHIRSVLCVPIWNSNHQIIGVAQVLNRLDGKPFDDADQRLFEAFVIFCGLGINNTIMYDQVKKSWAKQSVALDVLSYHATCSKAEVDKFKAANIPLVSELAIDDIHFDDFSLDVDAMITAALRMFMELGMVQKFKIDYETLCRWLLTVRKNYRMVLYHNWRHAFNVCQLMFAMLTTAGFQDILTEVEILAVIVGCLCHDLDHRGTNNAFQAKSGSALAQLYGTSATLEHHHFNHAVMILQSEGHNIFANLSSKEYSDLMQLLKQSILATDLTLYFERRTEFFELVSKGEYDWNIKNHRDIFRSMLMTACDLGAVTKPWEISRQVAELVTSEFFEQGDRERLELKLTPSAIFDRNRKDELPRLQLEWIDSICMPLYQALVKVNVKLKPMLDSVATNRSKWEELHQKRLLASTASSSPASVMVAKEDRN", "experiment": "PDE enzyme  assay, PDE11A4", "type": "biochemical", "protocol": "as §3"}, "PDE3A": {"target": "T3, PDE3A (Homo sapiens, UniProt Q14432)", "T3 construct": "purchased Eurofins Panlabs Discovery Services Taiwan, Ltd. (contract assay); host or cells: insect Sf9 cells", "T3 sequence (Q14432 whole entry)": "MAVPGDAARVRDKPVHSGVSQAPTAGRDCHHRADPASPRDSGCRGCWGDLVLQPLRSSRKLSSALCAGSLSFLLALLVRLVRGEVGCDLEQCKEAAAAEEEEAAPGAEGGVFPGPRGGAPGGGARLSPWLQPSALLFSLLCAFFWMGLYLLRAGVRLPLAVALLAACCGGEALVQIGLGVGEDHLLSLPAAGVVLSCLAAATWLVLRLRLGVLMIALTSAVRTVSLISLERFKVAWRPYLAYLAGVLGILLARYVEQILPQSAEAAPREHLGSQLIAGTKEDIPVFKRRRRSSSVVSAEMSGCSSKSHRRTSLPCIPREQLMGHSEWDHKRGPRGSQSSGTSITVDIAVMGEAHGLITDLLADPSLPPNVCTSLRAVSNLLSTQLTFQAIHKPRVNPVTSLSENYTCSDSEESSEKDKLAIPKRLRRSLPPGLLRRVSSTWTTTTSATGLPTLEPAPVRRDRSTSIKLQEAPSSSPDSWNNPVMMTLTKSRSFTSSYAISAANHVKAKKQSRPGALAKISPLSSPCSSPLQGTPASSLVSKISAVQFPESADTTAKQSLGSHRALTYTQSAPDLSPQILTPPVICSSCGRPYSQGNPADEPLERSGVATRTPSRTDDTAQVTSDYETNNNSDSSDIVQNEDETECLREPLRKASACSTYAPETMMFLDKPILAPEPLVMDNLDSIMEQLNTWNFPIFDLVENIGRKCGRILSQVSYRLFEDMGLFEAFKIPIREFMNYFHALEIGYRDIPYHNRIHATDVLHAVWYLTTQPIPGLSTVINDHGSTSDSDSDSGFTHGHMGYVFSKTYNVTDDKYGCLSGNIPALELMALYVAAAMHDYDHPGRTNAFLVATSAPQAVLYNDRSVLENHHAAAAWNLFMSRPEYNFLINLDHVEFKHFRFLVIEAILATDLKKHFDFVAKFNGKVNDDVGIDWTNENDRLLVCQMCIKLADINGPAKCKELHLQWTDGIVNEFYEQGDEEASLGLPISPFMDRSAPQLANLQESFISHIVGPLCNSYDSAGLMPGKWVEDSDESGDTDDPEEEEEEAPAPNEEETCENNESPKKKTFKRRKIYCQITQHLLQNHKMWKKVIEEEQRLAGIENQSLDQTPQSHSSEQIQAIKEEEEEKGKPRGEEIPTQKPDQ", "experiment": "PDE enzyme  assay, PDE3A", "type": "biochemical", "protocol": "as §3"}}, "data": [{"smiles": "COc1ccc(-c2cc(=O)c3c(OC)c(OC)c(OC)c(OC)c3o2)cc1OC", "note": "[nobiletin]", "values": [{"measurement": "adrenaline secretion", "setting": "serum adrenaline", "value": "significantly and potently stimulated"}, {"measurement": "IC50", "setting": "PDE2A", "value": 9.91, "unit": "µM"}, {"measurement": "blood glucose levels", "setting": "[1]", "value": "increased"}, {"measurement": "IC50", "setting": "PDE11A4", "value": 31, "unit": "µM"}, {"measurement": "IC50", "setting": "PDE3A", "value": 16, "unit": "µM"}]}]}
